SMILES strings stand for the structures. “Also recorded” adds a separate entry of the source.

Experimental findings from patent publication US20240299420A1, “TETRACYCLINE DERIVATIVE-INDUCED MITOHORMESIS MEDIATES DISEASE TOLERANCE AGAINST VIRAL INFECTIONS” (priority 2021, published 2024) are described below.

The subject of series [1] is hsp-6::gfp reporter (UPR^mt). Type of series: in vivo, Caenorhabditis elegans. As to conditions: for induction of MSR and in particular mitohormesis: summary of screen of 51 tetracycline derivatives; for UPR^mt activation (hsp-6::gfp reporter): 68 µM, 9-TB at 17 μM.
The next series concerns E. coli. Kind of series: Minimum inhibitory concentration (MIC) of bacterial growth. Type of series: cell-based. As to conditions: compared with Dox.
The subject of another series is P. aeruginosa. Described as above. Type of series: cell-based. As to conditions: compared with Dox.
Series [2] has as its system hsp-6::gfp reporter (UPR^mt). Type of series: in vivo, Caenorhabditis elegans. As to conditions: microfluidic device; relative to Dox and cco-1 RNAi.
In series [3] the test system is HEK293T cells. The series can be described thus: Mitonuclear protein imbalance (MTCO1/ATP5A immunoblot) in HEK293T cells. Type of series: cell-based, human. As to conditions: 24 hours, stronger than Dox. Background: In western blotting, separated proteins are transferred to a membrane and probed.
Procedure: The mitonuclear protein imbalance may be determined by a disbalanced ratio between a mitochondrial-encoded gene (e.g. MTCO1) versus a nuclear-encoded gene (e.g. ATP5A) of OXPHOS subunits as is illustrated by FIG. 3A.
A. Immunoblots of HEK293T cells for the OXPHOS subunits ATP5A (encoded in nuclear DNA) and MTCO1 (encoded in mitochondrial DNA) with TUBULIN serving as a control. Quantification of the relative MTCO1/ATP5A ratio is shown on the right. […] Statistical analysis was performed by ANOVA followed by Tukey post-hoc test (*p≤0.05, **p≤0.01, ***p≤0.001). Error bars represent standard error mean (SEM).
HEK293T (Human embryonic kidney 293T) cells were purchased from ATCC and have been routinely checked in the laboratory for mycoplasma contamination with the MycoProbe detection kit (R&D systems). […]
Tissues and cells were lysed using RIPA buffer (50 mM Tris-HCl pH 7.4, 150 mM NaCl, 1% NP-40, 0.5% Na-deoxycholate, 0.1% SDS, 2 mM EDTA, and 50 mM NaF) supplemented with protease and phosphatase inhibitor cocktails (Roche/Thermo Fisher Scientific). […] Protein concentration was determined by the Lowry method. […] Samples were analyzed by immunoblotting using standard procedures.
The test system of series [4] is HEK293T cells. Kind of series: Oxygen consumption rate in HEK293T cells (Seahorse XF96). As to conditions: 24 h, compared with Dox. Type of series: cell-based, human.
Procedure: B. Oxygen consumption rate of HEK293T cells exposed to different concentrations of Dox, 9-TB, or ATc (n=8). […] Error bars represent standard error mean (SEM).
HEK293T (Human embryonic kidney 293T) cells were purchased from ATCC and have been routinely checked in the laboratory for mycoplasma contamination with the MycoProbe detection kit (R&D systems). HEK293T were grown at 37° C. in a humidified atmosphere of 5% CO2/95% air in DMEM medium with 4.5 g/L glucose (Gibco) including 10% FBS (Gibco), 1× nonessential amino acids (Invitrogen) and 5 mM penicillin/streptomycin (Invitrogen). Cells were treated for 24 h with the indicated doses of compounds 24 hours after seeding. Oxygen consumption rate was measured with the Seahorse XF96 instrument (Seahorse Bioscience) according to the manufacturer's protocol.
Series [5] relates to HEK293T cells. Kind of series: MSR gene transcripts by RT-qPCR in HEK293T cells. Type of series: cell-based, human. As to conditions: 24 h, compared with Dox. Background: Real-time PCR tracks product formation cycle by cycle.
Procedure: Transcript levels of the indicated MSR genes measured by RT-qPCR (n=4).
HEK293T (Human embryonic kidney 293T) cells were purchased from ATCC and have been routinely checked in the laboratory for mycoplasma contamination with the MycoProbe detection kit (R&D systems). HEK293T were grown at 37° C. in a humidified atmosphere of 5% CO2/95% air in DMEM medium with 4.5 g/L glucose (Gibco) including 10% FBS (Gibco), 1× nonessential amino acids (Invitrogen) and 5 mM penicillin/streptomycin (Invitrogen). Cells were treated for 24 h with the indicated doses of compounds 24 hours after seeding.
RNA from cells and tissues was extracted using TRIzol and then reverse-transcribed into cDNA by the QuantiTect Reverse Transcription Kit (Qiagen) following the manufacturer's instructions. The qPCR reactions were performed using the LightCycler 480 II system and SYBR Green qPCR Master mix (Roche). All results are presented relative to the mean of housekeeping genes (ΔΔCt method). All mRNA expression levels were corrected for expression of the housekeeping gene 36B4 or Actb for samples of mouse origin, ACTB for samples of human origin.
The test system of series [6] is mouse bone marrow derived macrophages (BMDM). The series can be described thus: ISG and MSR gene transcripts by RT-qPCR in BMDM. As to conditions: 24 hours, 9-TB 1.88 μg/ml, ATc 3.75 and 7.5 μg/ml vs Dox 7.5-15 μg/ml. Type of series: cell-based.
Series [7] shares this test system. The series can be described thus: IFNβ measurement in BMDM culture medium (ELISA). Type of series: cell-based. As to conditions: for secretion of IFNβ: 24 hours, 9-TB 1.88 μg/ml, ATc 3.75 and 7.5 μg/ml vs Dox 7.5-15 μg/ml. For orientation: ELISA stands for enzyme-linked immunosorbent assay.
In series [8] the test system is IFV H1N1 PR8 strain. Kind of series: IFV infection in BALB/cN mice, 175 PFU, preventive treatment. Type of series: in vivo, mouse. As to conditions: for survival (mice recovering): Dox 40 mpkd or 9-TB 1 mpkd daily i.p., all control mice dead by day 11.
Series [9] has as its system IFV H1N1 PR8 strain. Kind of series: IFV infection in BALB/cN mice, 1000 PFU, preventive treatment. Type of series: in vivo, mouse. As to conditions: Dox 50 mpkd.
The test system of series [10] is IFV H1N1 PR8 strain. The series can be described thus: IFV infection in BALB/cN mice, 760 PFU, therapeutic treatment. Type of series: in vivo, mouse. As to conditions: 9-TB 0.025 and 0.05 mpkd from day 1 post-inoculation, trend, not significant. The source says:
A. Comparison of bacterial community composition by nonmetric multidimensional scaling (NMDS) based on the Bray-Curtis dissimilarity. B. Comparison of bacterial species diversity in terms of Shannon diversity index (SDI) and richness. Statistical significance assessed by Kruskal-Wallis test and post-hoc Wilcoxon test with p-value adjusted for multiple comparison using the Holm-Bonferroni method. ‘****’: p<0.0001, ‘***’: p<0.001, ‘**’: p<0.01, ‘*’: p<0.05, ‘ns’: p>0.05. C-D. 8-weeks old BALB/cN mice (n=12) were infected intranasally with 760 PFU of IFV-A H1N1 PR8 and injected with 9-TB (0.05, 0.025 mpkd). Survival (C) and clinical score (D) were followed for 14 days post-infection (n=12). Statistical analysis was performed by ANOVA followed by Tukey post-hoc test (*p≤0.05, **p≤0.01, ***p≤0.001). For survival curves, statistical analysis was performed by Log-rank (Mantel-Cox) test (*p≤0.05, **p≤0.01, ***p≤0.001). Error bars represent standard error mean (SEM).
A. Descriptive scheme of the mouse IFV infection experiment depicted in FIG. 5C-D, S5B. B. 8-weeks old BALB/cN mice (n=12) were infected intranasally with 760 PFU of IFV-A H1N1 PR8 and injected with 9-TB (0.05, 0.025 mpkd). Body weight was followed for 14 days post-inoculation (n=12). C. […]

The next series relates to gut bacterial community. As to conditions: Dox 40 mpkd; for gut bacterial community composition (perMANOVA, NMDS): after 3 and 6 days of treatment, 9-TB 1 mpkd, vs untreated mice.
The test system of series [11] is IFV-A H1N1 PR8 infected BALB/cN mice. Kind of series: RNA-Seq and GSEA of lung, liver and kidney of IFV infected mice (175 PFU, day 7).
The subject of the next series is germ-free C57BL/6J mice. Type of series: in vivo, mouse. As to conditions: Dox 500 mpkd in drinking water, 16 days, vs control. From the text:
B. Volcano plots displaying-log(adj. p-value) and the log fold change (FC) in expression of genes in kidney and liver. Above the graph, the number of differentially expressed genes is indicated (genes with adjusted p value (adj.pval)<0.05). C. […] E. Immunoblots of phosphorylated elF2α (pelF2α) and total elF2α and quantification in liver of Dox-treated germ-free mice.
Body weight at the time of the sacrifice was not different between the control and Dox-treated animals (FIG. 7A), indicating the absence of obvious adverse effects. […] Dox elicited organ-specific transcriptional responses, with the expression of remarkably more genes and different being affected in the kidney compared to the liver (FIG. 7B-C). […] The MSR features the induction of mitochondrial chaperones and proteases, such as Hspa9 and Lonp1, as well as of enzymes mediating adaptation to nutrient deprivation, such as asparagine synthetase (ASNS), which were increased at both the transcript and protein levels (FIG. 1C-D). […] Dox-treated germ-free mice kidneys thus gathered the typical attributes of the ATF4-ISR, a hallmark of the mammalian response to mitochondrial stress.
Male 9 weeks-old C57BL/6J mice were treated for 16 days with 500 mg/kg/day doxycycline hyclate (Sigma) in drinking water. Mice were housed with ad libitum access to water and food and kept under a 12-hour dark/12-hour light cycle. […]

As to `CN(C)[C@@H]1C(O)=C(C(N)=O)C(=O)[C@@]2(O)C(O)=C3C(=O)c4c(O)ccc(Br)c4C[C@H]3C[C@@H]12` [7-bromo sancycline], the “induction of MSR and in particular mitohormesis” value in series [1] is reported as “strongly induce MSR”. For the same compound, the “MIC for E. coli” value with E. coli is “significantly higher MIC”. Moreover, in the series with P. aeruginosa, the “MIC for P. aeruginosa” value is “significantly higher MIC”.
For `C[C@H]1c2ccc(C(C)(C)C)c(O)c2C(O)=C2C(=O)[C@]3(O)C(O)=C(C(N)=O)C(=O)[C@@H](N(C)C)[C@@H]3[C@@H](O)[C@@H]21` [9-TB, 9-tert-butyl-doxycycline], in series [1], the “UPR^mt activation (hsp-6::gfp reporter)” value was “strongest activators”; the “induction of MSR and in particular mitohormesis” value is recorded as “strongest inducer of MSR”. In addition, in series [2], the “UPR^mt induction, dose-response (GFP signal)” value is given as “more efficacious at lower doses; also recorded: surpassing the robust UPR^mt caused by cco-1 RNAi feeding”. For the same compound, the “MIC for E. coli” value against E. coli is given as “significantly higher MIC”. In the series on P. aeruginosa, the “MIC for P. aeruginosa” value is given as “significantly higher MIC”. Moreover, the “impact on the mitonuclear protein imbalance” value with HEK293T cells [3] is reported as about 2 fold. In addition, the “basal oxygen consumption rate (OCR)” value in the series with HEK293T cells [4] was “reduced basal oxygen consumption rate (OCR) in a dose-dependent and more pronounced fashion than Dox”. For the same compound, the “induction of transcripts for the mammalian MSR signature genes” value in the series with HEK293T cells [5] is given as “more prominent”. Besides, in series [6], the “induction of the ISGs and MSR genes” value is given as “superior to Dox”. Also, the “secretion of IFNβ” value in series [7] was “superior to Dox”. Moreover, the “survival (mice recovering)” value in the series with IFV H1N1 PR8 strain [8] turned out to be 50%. Moreover, in the series on IFV H1N1 PR8 strain [8] (day 7 post infection, Dox 40 mpkd, 9-TB 1 mpkd), the “viral titer in the lung tissue” value is reported as “no significant difference in viral titer”. Further, the “mortality and decline in health” value in the series on IFV H1N1 PR8 strain [9] (9-TB 12.5 mpkd i.p.) is recorded as “delayed mortality”. For the same compound, the “viral titer in the lungs” value in the series on IFV H1N1 PR8 strain [9] (day 5 post-infection, 9-TB 12.5 mpkd) is “absence of an impact on the viral titer”. This compound gave a survival in the series with IFV H1N1 PR8 strain [10] of 20%. For the same compound, in the series with gut bacterial community, the “gut bacterial community composition (perMANOVA, NMDS)” value is “no differences were observed”. For the same compound, the “inflammatory and immune-related terms in the lungs (GSEA)” value in [11] (9-TB 1 mpkd vs control IFV-infected) is reported as “significantly down-regulated”. In series [11] (9-TB 1 mpkd, Dox 40 mpkd), the “immune-related and inflammatory gene sets in liver and kidney (GSEA)” value is on record as “down-regulated”; the “lung cell type transcript profiles (GSEA)” value is listed as “reverted the loss of multiple cell types crucial to lung function”.
In the case of `Cc1c2c(c(O)c3c(O)cccc13)C(=O)[C@]1(O)C(=O)C(C(N)=O)=C(O)[C@@H](N(C)C)[C@@H]1C2` [ATc, anhydrotetracycline], in series [1], the “UPR^mt activation (hsp-6::gfp reporter)” value is reported as “strongest activators”; the “induction of MSR and in particular mitohormesis” value is “strongly induce MSR”. Also, in series [2], the “UPR^mt induction, dose-response (GFP signal)” value is reported as “more efficacious at lower doses”. In addition, in the series with HEK293T cells [3], the “impact on the mitonuclear protein imbalance” value is recorded as about 2 fold. The “basal oxygen consumption rate (OCR)” value in the series with HEK293T cells [4] is “reduced basal oxygen consumption rate (OCR) in a dose-dependent and more pronounced fashion than Dox”. Also, the “induction of transcripts for the mammalian MSR signature genes” value with HEK293T cells [5] is “more prominent”. The “induction of the ISGs and MSR genes” value in series [6] is given as “superior to Dox”. In addition, in [7], the “secretion of IFNβ” value was “superior to Dox”.
On to `C[C@H]1c2cccc(O)c2C(=O)C2=C(O)[C@]3(O)C(=O)C(C(N)=O)=C(O)[C@@H](N(C)C)[C@@H]3[C@@H](O)[C@@H]21` [Dox, doxycycline], for which the “Body weight at the time of the sacrifice” value in the series with germ-free C57BL/6J mice is “not different”. Besides, in the series with IFV H1N1 PR8 strain [8], the “survival (mice recovering)” value turned out to be 50%. Moreover, in the series with gut bacterial community, the “bacterial species diversity (Shannon diversity index and richness)” value is reported as “lower bacterial species diversity”; the “gut bacterial community composition (perMANOVA, NMDS)” value is given as “significant difference in composition”. Besides, the “gene sets involved in cytopathic processes and fibrosis in liver and kidney” value in series [11] (Dox 40 mpkd) was “induced”.
Turning to `Nc1ccn([C@H]2CC[C@@H](CO)O2)c(=O)n1` [ddC, 2′,3′-dideoxycytidine, reference compound], the “effect on Dox-induced secretion of IFNβ” value in [7] (ddC 100 μM for 72 hours, Dox 30 μg/ml for 14 hours) was “abrogated”.
